1 compound from patent US11952388B2, “Crystal form of tri-cycle compound and application thereof” (FUJIAN AKEYLINK BIOTECHNOLOGY CO., LTD., priority 2018, dated 2024) can be followed below.

For one data set, the system named is HBV. Nature of the data set: HBV in vitro test: quantitative qPCR of HBV DNA in HepG2.2.15 cells. Type of data set: cell-based. The method, then:
The HBV DNA content in HepG2.2.15 cells was detected by Real-time quantitative qPCR, and EC50 value of compounds was used as an indicator to evaluate inhibitory effect of compounds on HBV.
2.1 Cell Line: HepG2.2.15 Cells
3.1 HepG2.2.15 cells (4×10^4 cells/well) were bedded to a 96-well plate and cultured overnight at 37° C., 5% CO2.
3.2 On the day 2, the compound was diluted to a total of 8 concentrations, with a 3-fold gradient dilution. Different concentrations of compounds were added to the culture wells in duplicate. The final concentration of DMSO in the culture medium was 1%. 1 μM GLS4 was used as a 100% inhibition control; 1% DMSO was used as a 0% inhibition control.
3.3 On the day 5, the culture medium was replaced with fresh culture medium containing the compound.
3.4 On the day 8, the culture medium in the culture wells was collected, and DNA was extracted with the high-throughput DNA purification kit (Qiagen-51162). Refer product manual for specific steps.
3.6 15 μL of reaction mixture was added to each well of a 96-well PCR plate, and then 10 μL of sample DNA or HBV DNA standard was added to each well.
3.7 The reaction settings for PCR are: heating at 95° C. for 10 minutes; then denaturation at 95° C. for 15 seconds, and extension at 60° C. for 1 minute, a total of 40 cycles. […]

Data set [1] in a line: Pharmacokinetics of oral administration and intravenous injection in SD rats. Type of data set: in vivo. Particulars: male, rat, plasma. The method, then:
2. Study on the Pharmacokinetics of Oral Administration and Intravenous Injection of the Compound Represented by Formula (I) in SD Rats The compound represented by formula (I) was mixed with 5% DMSO/55% polyethylene glycol 400/40% aqueous solution, vortexed and sonicated to obtain an approximately clear solution of 1 mg/mL, which was then filtered by a microporous membrane for later use. Male SD rats aged 7 to 10 weeks were selected and the candidate compound solution was administered intravenously at a dose of 1 mg/kg. The compound represented by formula (I) was mixed with 10% solutol aqueous solution, vortexed and sonicated to obtain an approximately clear solution of 1 mg/mL, which was then filtered through a microporous membrane for later use. Male SD rats aged 7 to 10 weeks were selected and the candidate compound solution was orally administered at a dose of 10 mg/kg. Whole blood was collected at a certain period of time to prepare plasma, drug concentration was analyzed by LC-MS/MS method, and pharmacokinetic parameters was calculated by Phoenix WinNonlin software (Pharsight, USA). Note: T1/2 means half-life; Vdss means apparent volume of distribution; Cl means clearance rate; AUC0_last means area below the drug-time curve; Tmax means peak time; Cmax means peak concentration; F % means oral bioavailability; iv means intravenous injection; PO means oral administration; mpk means mg/kg.

Broadly, the half-life is how long it takes for the measured level to halve. Low values mean rapid decline, high ones slow decline. The term Cmax denotes the maximum level reached in the sampled fluid or tissue. A word on the Tmax: it is the time at which the peak concentration occurs. As usually defined, the bioavailability is the share of a dose that reaches the circulation, judged against a reference dose that is usually intravenous.

Molecules are shown by their SMILES. Where two headings read alike, the source gives them in different places.

In the case of `Cc1cc2n(c1)S(=O)(=O)c1ccc(C(=O)NCC[C@H]3COCCO3)cc1NC2=O` [compound represented by formula (I)], in the data set with HBV, the “inhibitory effect on HBV (conclusion in words)” value is reported as “significant inhibitory effect”. In the data set on HBV (Hepatitis B virus, HBV DNA by qPCR, read-out: 50% inhibitory concentration (EC50) value of HBV), the EC50 is 8.16 nM. In data set [1] (1 mg/kg, iv 1 mpk), this compound showed a clearance of 8.5 mL/min/kg and a half-life of 57 min. For the same compound, in data set [1] (1 mg/kg, iv 1 mpk, read-out: AUC0-last), the AUC(0-t) is 4.82 µM·h. For the same compound, in data set [1] (1 mg/kg, iv 1 mpk, read-out: Vdss), the Vd is 0.56 L/kg. Further, in data set [1] (10 mg/kg, po 10 mpk), the Cmax came to 8.57 µM, the Tmax was 30 min and the bioavailability was determined as 65%. Further, in data set [1] (10 mg/kg, po 10 mpk, read-out: AUC0-24h), the AUC(0-t) stood at 31.1 µM·h.
